The values below come from publication PMC8111499, “GW117: A novel serotonin (5‐HT2C) receptor antagonist and melatonin (MT1/MT2) receptor agonist with potential antidepressant‐like activity in rodents” (CNS Neuroscience & Therapeutics, 2021).

In this experiment the test system is CUS rats. The experiment in a line: Sucrose preference test in CUS rats. In kind it is in vivo. The note with it: chronic, 5, 10, 20, and 40 mg/kg, vs. CUS‐vehicle. As for the experimental part: In order to further examine the antidepressant effects of GW117, chronic unpredictable stress (CUS) model was utilized; the methods were as described before. ^29 , ^31 After 1 week of training, rats underwent sucrose training of 48 h. After training, a sucrose baseline test was performed. […] Gastric gavage was given 1 h before the stress (08:00–09:00). Except for the non‐stressed group, all rats were stimulated by a series of stressors. stress methods included the following: fast on food and water (24 h), moisture cage (150 g sawdust bedding in 200 ml water), overnight illumination, low‐intensity strobe illumination (100 flashes/min), forced swimming (5 min at 10℃), white noise (110 dB), tail pinch (1 cm from tail root, 6 min), 45℃ cage tilt, and restraint (1–2 h). Stressors need to be used continuously and randomly. Non‐stressed rats received free food and water, but were required to fast for 14 h before sucrose preference test. After 4 weeks of stress, the sucrose preference test (SPT) (on day 25), open field test (OFT) (on day 28), and novelty‐suppressed feeding (NSF) test (on day 29) were carried out.
The SPT was performed as previously reported. ^32 Rats were trained to administer sucrose water solution after 48 h fasting and water deprivation. […] Sucrose and water intake were measured, and sucrose preference was calculated: SP =sucrose intake ×100%/ (sucrose intake +water intake). […]

With `[2H]C([2H])([2H])Oc1cc2c(CCNC(C)=O)cccc2cc1Cl` [GW117], the sucrose preference entry is reported as “markedly increased sucrose preference”.
